We go through 3 compounds from PubChem BioAssay (NCI).

Holding throughout (test): NCI tumour cell line growth inhibition, 48 h
Experiment [1] relates to P388 leukemia.
The subject of experiment [2] is P388/ADR leukemia.
The test system of experiment [3] is SN12K1 renal.

SMILES strings stand for the structures.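 These data come from cells grown in 96-well plates and exposed to compound for 48 hours at five concentrations. TGI is the concentration that stops growth completely.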

Regarding `COc1cc(C2c3cc4c(cc3[C@@H](Nc3ccc(F)cc3)C3COC(=O)[C@H]23)OCO4)cc(OC)c1O` (some centres undefined), the TGI in experiment [1] was found to be 1.61 µM; in experiment [2], 1.63 µM; in experiment [3], 12.2 µM.
For `C=C1C(C)C2C(Cc3ccccc3)NC(=O)C23C(OC(C)=O)C=CC(C)(O)C(=O)C(C)C/C=C/C3C1O` (centres undefined) the same measures were 51.7 µM, 90.3 µM and 58.3 µM.
The like results for `COc1cc([C@@H]2c3cc4c(cc3[C@@H](OC3OC5COC(C)OC5C(O)C3O)[C@H]3COC(=O)[C@H]23)OCO4)cc(OC)c1O` (some centres undefined) were, in that order, 9.88 µM, 411 µM and 66.6 µM.
